Results reported in US9173871B2, “Oxazole and thiazole compounds as beta-catenin modulators and uses thereof” (New York University, priority 2008, dated 2015).

Columns and labels:
HCT116 cells = assay: Flow cytometry cell cycle analysis of HCT116 cells; format: cell-based; settings: HCT116, 16 hrs, FIG. 9
Description: In order to test the inhibitory effect of candidate compounds on the transcription of endogenous Wnt/β-cat target genes in HCT116 cells, lysates were prepared from cells that were either treated with candidate small molecules or DMSO control. […] Cell cycle arrest of compound treated HCT116 cells was further confirmed by the reduced number of phosphorylated Histone3 (PH3) positive cells, when cultured in the presence of candidate compounds (FIG. 10).
Flow Cytometry analysis was performed on HCT116 cells treated with candidate compounds for 16 hrs per standard protocols. Briefly, compound treated cells were harvested and washed in 1×PBS followed by fixation in 70% Ethanol at 4° C. for 16 hrs. Cells were then washed in 1×PBS and treated with RNAse at 37° C. for 30′. Following extensive washes in 1×PBS, cellular DNA was stained with 500 ug/ml of Propidium Iodide at room temperature for 10′. Cells were washed again in 1×PBS and analysed by flow cytometry on a FACScalibur machine (Beckson Dickinson) at the NYU flow cytometry core facility.

[1] = system: Wnt/wg pathway, Wnt-responsive luciferase reporter dTF12; assay: Wg-responsive dTF12 (TOP12) luciferase reporter assay in Drosophila Clone 8 cells, pathway activated by Axin dsRNA; format: cell-based; settings: Drosophila melanogaster; luciferase assay method in Drosophila Clone 8 cells
Text: The present inventors employed a novel methodology that integrates a “sensitized” chemical genetic high-throughput screen (HTS) with RNA-interference (RNAi) screening technology in order to identify specific small molecule inhibitors of the Wnt pathway in Drosophila cells. As described herein, Drosophila Clone 8 cell-based assay systems developed by the present inventors to investigate the Wnt/wg pathway [DasGupta et al. Science 308, 826-33 (2005)] were used in a small molecule chemical genetic screen to identify specific inhibitors of the pathway. These cell-based assays, which are described in detail below, utilize a Wnt-responsive luciferase reporter […], the activity of which can be determined using […]. The present inventors used the small-molecule library available from the Institute of Chemistry and Cellular Biology (ICCB-Longwood) at Harvard Medical School, Boston, for the screen. […] The resultant activation of the Wnt signaling pathway is then detected by assessing the activity of the Wnt-responsive luciferase reporter gene in the cell-based assay system. […] Primary Small Molecule Screen for the Wingless Signaling Pathway in Drosophila Clone 8 Cells Set up transfection with Wg-reporter ([…]), Normalization vector (PolIII-RL) and dsRNA against […] specific towards Drosophila Axin and lacks any predicted off-targets). 1. Add 40,000 Drosophila Clone 8 cells (in 40 μL) in 384-well plate (white solid bottom, Corning Costar) using the multidrop. 2. Add 20 μLof Transfection mix in each well of a 384-well plate (Corning Costar) using the multidrop. Incubate at 25° C. for 4 days to ensure complete knockdown of Axin. Add small molecule library (Cybio Robot). Incubate 18 hrs. Assay luminescence from the samples using the “Dual-Glo” luciferase kit (Promega Inc.). Specifically, aspirate supernatant and add 20 μL media+20 μL luciferase buffer using the multidrop. Read Firefly Luciferase activity on the EnVision (Perkin Elmer plate reader). Add 20 μL of Stop&Glo using the multidrop. Read Renilla luciferase activity on the EnVision (Perkin Elmer plate reader). The Wnt signaling pathway was induced by the introduction of dsRNAs specific for Axin into Clone 8 cells comprising the Wg-responsive luciferase reporter-gene ([…]). As described herein, Axin is a scaffold protein that negatively regulates Arm/β-cat by promoting its degradation. Thereafter, a selected set of a small molecule library was added to the Clone 8 cell-based assay system to assess the effect of individual compounds on (Axin dsRNA-mediated) activated CRT by monitoring the activity of the Wg-responsive luciferase reporter-gene ([…]). […] For the purpose of Table 11 below, activity of each compound is determined using the luciferase assay method in Drosophila Clone 8 cells.

[2] = system: Wnt-responsive STF16 luciferase reporter in HEK 293 cells; assay: Wnt-responsive STF16 luciferase reporter assay in HEK 293 cells; format: cell-based, mammalian; settings: 2.5 ng/μl, Wnt3a conditioned media, FIG. 4
Description: HEK 293 cells were transfected with 50 ng each of the Wnt-responsive STF16 luciferase reporter and pCMV-RL normalization reporter using the Lipofectamine LTX (Invitrogen Inc.) in a 96 well plate format. Cells were cultured in DMEM/10% FBS at 37° C. for 2 days following which, they were induced with Wnt3a conditioned media for 1 day and then treated with small molecule compounds to a final concentration of 2.5 ng/μl for approximately 18 hours. Luciferase reporter activity was then measured using the Dual-Glo system (Promega Inc.) on the Envision Plate Reader. Normalized luciferase activity in response to treatment with candidate small molecule compounds was compared to that obtained from cells treated with DMSO. In order to confirm and corroborate the activity of CRT inhibitor compounds in a mammalian context, the present inventors have tested a subset of the inhibitors identified in the context of established mammalian cell lines. […] Briefly, HEK 293 cells were transfected with pSTF16-LF along with the normalization reporter, pCMV-RL and the effect of the compounds on reporter activity in such cells was determined by quantifying the luminescence from the luciferase reporter gene as described in Dasgupta et al. [supra (2005)].

[3] = system: C57 mg mouse mammary epithelial cell line; assay: C57mg transformation assay (Wnt3a induced); format: cell-based; settings: 10 ng/μl, 5 days, FIG. 5
Description: The transformation assay was carried out in a 96 well format. C57 mg cells were cultured in DMEM/10% FBS supplemented with purified Wnt3a protein (R&D Systems) to a final concentration of […]. Small molecule compounds dissolved in DMSO were added to a final concentration of 10 ng/μl and 0.01% DMSO. Following incubation at 37° C. for 5 days, cells were fixed with 4% Formaldehyde in 1×PBS at RT for 30 min and washed subsequently with 1×PBS at room temperature (RT) for 5 minutes (×3). Cells were then permeabilized in Blocking buffer (0.1% Triton-X/1×PBS/5% Normal Goat Serum) at RT for 20 min, subsequent to which, cells were incubated with anti-β-cat at RT for 1 hour (diluted to 1:1000 in blocking buffer). Subsequently, cells were washed with 1×PBS at RT for 10 minutes (×3) and then incubated with secondary antibody and Alexa-Fluor 488 conjugated phalloidin in Blocking buffer at RT for 1 hour. Following a brief wash in 1×PBS, cells were imaged in PBS buffer using the Array-Scan imaging system.
Transformation of the cell line is evidenced by pronounced changes in morphology, typified by formation of chord-like bundles of cells or foci-forming colonies that break off and float in the media [Wong et al. supra, 1994]. This Wnt responsive phenotype provides a mammalian assay in which to evaluate the inhibitory effect of the small molecule inhibitors identified in the primary screen. Briefly, cells are cultured in Wnt3a conditioned media in the presence or absence of a small molecule inhibitor and morphological analysis conducted using automated microscopy.
The present inventors have established a phenotypic assay using the Wnt-responsive C57 mg mouse mammary epithelial cell line to ascertain the validity of the inhibitory compounds identified in the primary screen. Specifically, addition of Wnt3a conditioned media or purified Wnt3a protein results in cellular transformation, manifested by a pronounced change from an epithelial-cell like morphology to those resembling spindle shaped cells with chord like bundles. […] The Array-Scan imagining system (Cellomics Inc.) is used to image such phenotypic changes in a 96-well plate format so as to gain a quantitative estimate of the degree of the inhibitory effect of the compounds on Wnt3a induced transformation in C57 mg cells. Quantitative analysis of the transformation phenotype is measured by the degree of actin fiber alignment (defined as anisotropy), which is expressed as the standard deviation (SD) of the angles projected by the actin fibers relative to the normal; low SD numbers reflect an increase in Wnt-responsive transformation. This approach allows for objective inferences on the cellular effects of the candidate inhibitors.

Row | IC50 [1] [µM] | SMILES | cell cycle effect (HCT116 cells) | inhibition of Wnt responsive luciferase reporter activity in HEK-293 cells [2] | inhibition of Wnt3a induced C57 mg transformation [3]
1 | 3.51 | CCc1ccc(-c2nc(CSCC(=O)NCc3ccccc3)c(C)o2)cc1 [IIa-66] | – | – | –
2 | 4.76 | O=C(CCCN1C(=O)/C(=C/c2cccs2)SC1=S)Nc1ccc(O)cc1 [IIa-432] | – | poor inhibitors | significant inhibition
3 | 1.58 | CCc1ccc(-c2nc(CSCC(=O)NC3CC3)c(C)o2)cc1 [IIa-719] | – | – | partial reduction
4 | 1260 | Cc1ccc(-c2nc(CSCC(=O)NC3CC3)c(C)o2)cc1 [IIa-722] | – | – | partial reduction
5 | 1.1 | CCc1ccc(-c2nc(CSCC(=O)N3CCc4ccccc43)c(C)o2)cc1 [IIa-2102] | – | – | partial reduction

Continued, compound first:

Row | SMILES | IC50 [1] [µM] | cell cycle effect (HCT116 cells) | inhibition of Wnt responsive luciferase reporter activity in HEK-293 cells [2] | inhibition of Wnt3a induced C57 mg transformation [3]
6 | Cc1cc(/C=C2\SC(=O)N(c3ccccc3)C2=O)c(C)n1-c1cccnc1 [Compound C14] | – | G0/G1 arrest | – | –
7 | COc1cccc(/C=C2\SC(=S)N(CCCC(=O)O)C2=O)c1OC [IIa-143] | 3.06 | – | – | –
8 | CCc1ccc(-c2nc(CSCC(=O)NCCc3ccccc3)c(C)o2)cc1 [IIa-333] | 4.18 | – | – | –
